Tests used:
[1] = tested on: PC-3 human prostate cancer cells; assay: Prostate cancer bone metastasis model (intratibial inoculation, 5-week study, preventive setting); assay type: in vivo, male athymic nude mice; design: Fractures / Osteoblastic lesions: unit not given here; conditions: for Significance (Fractures) / Significance (Osteoblastic lesions): vs control; for Fractures / Osteoblastic lesions: x-ray, qualitative (yes or no)
From the text: (§1) The objective of this study was to test the efficacy of three different doses of the test compound 1 on prostate cancer bone metastases in male athymic nude mice in a 5-week study in preventive setting. The following 5 experimental groups were included in the study:
The vehicle was corn oil. All groups included 15 mice that were 7 weeks of age at the beginning of the study. Based on the body weights the animals were randomized to five groups. On day 0, the animals were given an intratibial inoculation of human prostate cancer cells. Body weights were determined twice a week. The development of osteoblastic and osteolytic lesions were followed by x-ray. The test compound and vehicle were administered by oral gavage twice a day. The animals were sacrificed at day 35. Tissue samples were collected for histology and embedded in paraffin from left and right tibia and femur for possible future histomorphometric analyses. Gross necropsy was performed to all animals at the end of the study, and all macroscopic signs were recorded.
(§2) Test compound 1 (99.85%, specific density: 1.005) was obtained in liquid form. Three 50× stock solutions were prepared in corn oil (75 mg/ml, 150 mg/ml and 225 mg/ml) and stored them in dark at +4° C. The dosing solutions of 1.5, 3.0 and 4.5 mg/ml were prepared from the stock solutions by diluting the stock solutions in corn oil 1:50. The dosing solutions were prepared once a week and stored in dark at +4° C. The dosing volume was 10 ml/kg. The test compound was administered by oral gavage twice a day with dosing intervals of 10+14 hours. The dosings were started at day 1 and performed at the same time every day.
(§3) Zoledronic acid was used as a reference compound. 1001 of Zometa® (Novartis Pharma GmbH, Nürnberg, Germany) 4 mg/5 ml infusion concentrate was diluted in 3.9 ml of sterile saline (0.9% NaCl) to obtain the administration concentration of 0.02 mg/ml. This solution was prepared once during the study and stored at +4° C. The dosing volume was 5 ml/kg, resulting in the dose of 0.1 mg/kg. The reference compound was administered SC twice in the study: at days 1 and 14.
Male athymic nude mice (Hsd: Athymic nude-nu, obtained from Harlan, The Netherlands) and PC-3 human prostate cancer cells (ATCC) were used for this study.
In this model, human prostate cancer cells are inoculated into the left proximal tibia of 5-7 week old male athymic nude mice. This mouse strain is immunodeficient, allowing rapid spreading of the human cancer cells. The bone lesions are mixed, being mainly osteolytic but also containing an osteoblastic component. Within four weeks after the inoculation part of the animals have already developed some bone lesions, that can be visualized by X-ray radiography. At 7 weeks, the bone metastases are clearly visible. The animals are sacrificed at 7-8 weeks after inoculation, and their bones are collected for further histomorphometric analysis.
Male athymic nude mice (Hsd: Athymic nude-nu, obtained from Harlan, The Netherlands) were used for this study. The age of the animals was 7 weeks, and their body weights were approximately 18-25 g at the beginning of the study. The mice were specific pathogen free (SPF) and isolator-reared animals. Correct age and good clinical health were qualifications for the study. The minimum quarantine and acclimatization period for the mice was 7 days. Allocation to groups was performed by randomization procedure based on body weight. The animals were marked with tail and ear marks. The mice were housed in Scantainer®, 5 mice per cage. In case of fighting, some of the animals had to be isolated. For intratibial inoculations the mice were anesthetized with i.p. injections of Xylazin (5-6 mg/kg) and Ketamine (92-109 mg/kg). For x-ray imaging the mice were anesthetized with inhalation of isoflurane. […]

[2] = tested on: MDA-MB-231SA-GFP6 human breast cancer cells; assay: Breast cancer bone metastasis model (intracardiac inoculation, 25-day study, preventive setting); assay type: in vivo
From the text: as §1, with “the exemplary” for “the test”, “1 (Antroquinonol) from Example 1” for “1”, “on breast” for “on prostate”, “in female” for “in male”, “a 25-day” for “a 5-week”
The vehicle was corn oil. All groups included 15 mice that are 5 weeks of age at the beginning of the study. Based on the body weights the animals were randomized to five groups. On day 0, the animals were given intracardiac inoculation of human breast cancer cells. Body weights were determined twice a week. At sacrifice, the osteolytic lesions and whole body tumor burden were quantified by x-ray and fluorescence imaging, respectively. The test compound and vehicle were administered by oral gavage twice a day. Blood samples for analysing TRACP 5b were collected at days 0, 17 and 24. The animals were sacrificed at day 25, or earlier if they became moribund. Tissue samples were collected for histology and embedded in paraffin from left and right tibia and femur for possible future histomorphometric analyses. Gross necropsy was performed to all animals at the end of the study, and all macroscopic signs were recorded.
as §2, with “(99%, 1005 mg/ml)” for “(99.85%, specific density: 1.005)”, “were” for “were started at day 1 and”
as §3, with “100 μl” for “1001”
Female athymic nude mice (Hsd: Athymic nude-nu) were obtained from Harlan Laboratories B.V. (Horst, The Netherlands). MDA-MB-231SA-GFP6 human breast cancer cells were received originally from Prof. Theresa Guise (Indiana University, Indianapolis, Ind., USA) and transfected with pTurboGFP-N vector (Evrogen JSC, Moscow, Russia).
This experiment utilized an animal model that closely resembles the characteristics of breast cancer metastatic disease or condition in humans. This model can be effectively used for testing the effects of cancer drug candidates on the metastasis of breast cancer cells to bone. In this model, human breast cancer cells are inoculated into the left cardiac ventricle of 5 weeks old female athymic nude mice. This mouse strain is immunodeficient, allowing rapid spreading of the human cancer cells. Within two weeks after the inoculation, the animals develop osteolytic bone metastases that can be visualized by X-ray radiography. In addition, soft tissue metastases are observed in approximately 40% of the animals, especially in adrenal glands. At 3 weeks, the bone metastases are clearly visible in X-ray radiographs and the animals have developed cachexia and lost weight substantially. The animals are sacrificed typically at 3-4 weeks after inoculation, and their hindlegs are collected for further histomorphometric analysis.
Female Athymic nude mice (Hsd: Athymic nude-nu, obtained from Harlan, The Netherlands) were used for this study. The age of the animals was 5 weeks, and their body weights were approximately 16-22 g at the beginning of the study. The mice were specific pathogen free (SPF) and isolator-reared animals. […]

[3] = Day 28, 0.1 mg/kg sc days 1 and 14
[4] = Sacrifice, 0.1 mg/kg sc days 1 and 14

`COC1=C(OC)C(O)C(C/C=C(\C)CC/C=C(\C)CCC=C(C)C)C(C)C1=O` (stereo not drawn) [Compound 1, 4-hydroxy-2,3-dimethoxy-6-methyl-5-(3,7,11-trimethyldodeca-2,6,10-trienyl)cyclohex-2-enone] was tested, and the “Significance (Fractures)” value ([1]; Day 28, 30 mg/kg/d po) was “* (One asterisk (*) indicates a statistical significance with p-value<0.05)”, the “Significance (Fractures)” value ([1]; Day 28, 60 mg/kg/d po) was “* (One asterisk (*) indicates a statistical significance with p-value<0.05)” and the Fractures ([1]; Day 28, 30 mg/kg/d po) was 0.0. For the same compound, the Osteoblastic lesions ([1]; Day 28, 30 mg/kg/d po) was 0.0, the Fractures ([1]; Day 28, 60 mg/kg/d po) was 0.0 and the Osteoblastic lesions ([1]; Day 28, 60 mg/kg/d po) was 0.0. The Fractures ([1]; Day 28, 90 mg/kg/d po) was 36.4, the Osteoblastic lesions ([1]; Day 28, 90 mg/kg/d po) was 9.1 and the “Significance (Fractures)” value ([1]; Sacrifice, 30 mg/kg/d po) was “* (One asterisk (*) indicates a statistical significance with p-value<0.05)”. For the same compound, the “Significance (Fractures)” value ([1]; Sacrifice, 60 mg/kg/d po) was “* (One asterisk (*) indicates a statistical significance with p-value<0.05)”, the “Significance (Osteoblastic lesions)” value ([1]; Sacrifice, 60 mg/kg/d po) was “* (One asterisk (*) indicates a statistical significance with p-value<0.05)” and the Fractures ([1]; Sacrifice, 30 mg/kg/d po) was 21.4. It also gave an Osteoblastic lesions ([1]; Sacrifice, 30 mg/kg/d po) of 35.7, a Fractures ([1]; Sacrifice, 60 mg/kg/d po) of 21.4 and an Osteoblastic lesions ([1]; Sacrifice, 60 mg/kg/d po) of 21.4. For the same compound, the Fractures ([1]; Sacrifice, 90 mg/kg/d po) was 36.4, the Osteoblastic lesions ([1]; Sacrifice, 90 mg/kg/d po) was 45.5 and the “osteoclast number at tumor-bone interface” value ([1]; all doses) was “no effect”. For the same compound, the total tumor area ([1]; dose 60 mg/kg/d) was “no effect”, the “maximum body weight obtained” value ([1]; mouse, in vivo, 60 mg/kg/day) was “increased” and the Cachectic % ([2]; 30 mg/kg/d po) was 21.4%. The Paraplegic % ([2]; 30 mg/kg/d po) was 57.1%, the Cachectic % ([2]; 60 mg/kg/d po) was 16.7% and the Paraplegic % ([2]; 60 mg/kg/d po) was 8.3%. For the same compound, the Cachectic % ([2]; 90 mg/kg/d po) was 20%, the Paraplegic % ([2]; 90 mg/kg/d po) was 20.0% and the intraosseous tumor area ([2]; higher doses (60 and 90 mg/kg/d)) was “no effect”. The “body weight at sacrifice” value ([2]; mouse, in vivo, 90 mg/kg/day) was “increased” and the “maximum weight obtained during the study” value ([2]; mouse, in vivo, 90 mg/kg/day) was “increased”.
In the case of `O=P(O)(O)C(O)(Cn1ccnc1)P(=O)(O)O` [Zoledronic acid, reference compound], the body weight ([1]; 0.1 mg/kg sc days 1 and 14) is reported as “no effect”, the “Significance (Fractures)” value [1, 3] is reported as “* (One asterisk (*) indicates a statistical significance with p-value<0.05)” and the Fractures [1, 3] is reported as 0.0. The Osteoblastic lesions [1, 3] was 0.0, the “Significance (Fractures)” value [1, 4] was “*** (three asterisks (***) a statistical significance with p-value<0.001)” and the “Significance (Osteoblastic lesions)” value [1, 4] was “*** (three asterisks (***) a statistical significance with p-value<0.001)”. It also gave a Fractures [1, 4] of 0.0, an Osteoblastic lesions [1, 4] of 0.0 and a Cachectic % ([2]; 0.1 mg/kg sc days 1 and 14) of 11.1%. For the same compound, the Paraplegic % ([2]; 0.1 mg/kg sc days 1 and 14) was 22.2%, the body weight ([2]; 0.1 mg/kg sc days 1 and 14) was “no effect” and the intraosseous tumor area ([2]; 0.1 mg/kg sc days 1 and 14) was “no effect”. The “whole body tumor burden” value ([2]; 0.1 mg/kg sc days 1 and 14) was “no effect”.
